Experimental data published in ChEMBL document CHEMBL3352029, “Ring fusion strategy for the synthesis of anthra[2,3-d]oxazole-2-thione-5,10-dione homologues as DNA topoisomerase inhibitors and as antitumor agents” (Eur J Med Chem, 2014).
Calls of active or inactive are those of the source. The calls are words filed in the database; no cut-off is given here.

Assays:
[1] = system: HCC 2998; test: Cytotoxicity against human HCC2998 cells assessed as cell growth level at 10 uM after 48 hrs by sulforhodamine B assay; format: functional
[2] = system: U-251; test: Cytotoxicity against human U251 cells assessed as cell growth level at 10 uM after 48 hrs by sulforhodamine B assay; format: functional
[3] = system: DU-145; test: Cytotoxicity against human DU145 cells assessed as cell growth level at 10 uM after 48 hrs by sulforhodamine B assay; format: functional
[4] = system: MDA-MB-231; test: Cytotoxicity against human MDA-MB-231 cells assessed as cell growth level at 10 uM after 48 hrs by sulforhodamine B assay; format: functional
[5] = system: RXF 393; test: Cytotoxicity against human RXF393 cells assessed as cell growth level at 10 uM after 48 hrs by sulforhodamine B assay; format: functional
[6] = system: SK-MEL-5; test: Cytotoxicity against human SK-MEL-5 cells assessed as cell growth level at 10 uM after 48 hrs by sulforhodamine B assay; format: functional
[7] = system: HT-29; test: Cytotoxicity against human HT-29 cells assessed as cell growth level at 10 uM after 48 hrs by sulforhodamine B assay; format: functional
[8] = system: T47D; test: Cytotoxicity against human T47D cells assessed as cell growth level at 10 uM after 48 hrs by sulforhodamine B assay; format: functional
[9] = Cytotoxicity against human NCI-ADR-RES cells assessed as cell growth level at 10 uM after 48 hrs by sulforhodamine B assay; format: functional
[10] = Cytotoxicity against human PC3 cells assessed as cell growth level at 10 uM after 48 hrs by sulforhodamine B assay; format: functional, PC-3
[11] = system: IGROV-1; test: Cytotoxicity against human IGROV1 cells assessed as cell growth level at 10 uM after 48 hrs by sulforhodamine B assay; format: functional
[12] = system: SNB-19; test: Cytotoxicity against human SNB19 cells assessed as cell growth level at 10 uM after 48 hrs by sulforhodamine B assay; format: functional
[13] = system: RPMI-8226; test: Cytotoxicity against human RPMI8226 cells assessed as cell growth level at 10 uM after 48 hrs by sulforhodamine B assay; format: functional
[14] = system: SNB-75; test: Cytotoxicity against human SNB75 cells assessed as cell growth level at 10 uM after 48 hrs by sulforhodamine B assay; format: functional
[15] = system: LOX IMVI; test: Cytotoxicity against human LOXIMVI cells assessed as cell growth level at 10 uM after 48 hrs by sulforhodamine B assay; format: functional
[16] = Cytotoxicity against human OVCAR3 cells assessed as cell growth level at 10 uM after 48 hrs by sulforhodamine B assay; format: functional, OVCAR-3
[17] = system: ACHN; test: Cytotoxicity against human ACHN cells assessed as cell growth level at 10 uM after 48 hrs by sulforhodamine B assay; format: functional
[18] = system: MCF7; test: Cytotoxicity against human MCF7 cells assessed as cell growth level at 10 uM after 48 hrs by sulforhodamine B assay; format: functional
[19] = system: 786-0; test: Cytotoxicity against human 786-0 cells assessed as cell growth level at 10 uM after 48 hrs by sulforhodamine B assay; format: functional
[20] = system: COLO 205; test: Cytotoxicity against human COLO205 cells assessed as cell growth level at 10 uM after 48 hrs by sulforhodamine B assay; format: functional
[21] = system: KM12; test: Cytotoxicity against human KM12 cells assessed as cell growth level at 10 uM after 48 hrs by sulforhodamine B assay; format: functional
[22] = system: SF-539; test: Cytotoxicity against human SF539 cells assessed as cell growth level at 10 uM after 48 hrs by sulforhodamine B assay; format: functional
[23] = system: SF-268; test: Cytotoxicity against human SF268 cells assessed as cell growth level at 10 uM after 48 hrs by sulforhodamine B assay; format: functional
[24] = system: CAKI-1; test: Cytotoxicity against human CAKI-1 cells assessed as cell growth level at 10 uM after 48 hrs by sulforhodamine B assay; format: functional
[25] = system: BT-549; test: Cytotoxicity against human BT549 cells assessed as cell growth level at 10 uM after 48 hrs by sulforhodamine B assay; format: functional
[26] = system: K562; test: Cytotoxicity against human K562 cells assessed as cell growth level at 10 uM after 48 hrs by sulforhodamine B assay; format: functional
[27] = system: NCI-H322M; test: Cytotoxicity against human NCI-H322M cells assessed as cell growth level at 10 uM after 48 hrs by sulforhodamine B assay; format: functional
[28] = Cytotoxicity against human Hs 578T cells assessed as cell growth level at 10 uM after 48 hrs by sulforhodamine B assay; format: functional
[29] = system: MOLT-4; test: Cytotoxicity against human MOLT4 cells assessed as cell growth level at 10 uM after 48 hrs by sulforhodamine B assay; format: functional
[30] = system: HOP-92; test: Cytotoxicity against human HOP92 cells assessed as cell growth level at 10 uM after 48 hrs by sulforhodamine B assay; format: functional
[31] = Cytotoxicity against human OVCAR5 cells assessed as cell growth level at 10 uM after 48 hrs by sulforhodamine B assay; format: functional, OVCAR-5
[32] = Cytotoxicity against human SKOV3 cells assessed as cell growth level at 10 uM after 48 hrs by sulforhodamine B assay; format: functional, SK-OV-3
[33] = system: NCI-H23; test: Cytotoxicity against human NCI-H23 cells assessed as cell growth level at 10 uM after 48 hrs by sulforhodamine B assay; format: functional
[34] = system: MDA-MB-435; test: Cytotoxicity against human MDA-MB-435 cells assessed as cell growth level at 10 uM after 48 hrs by sulforhodamine B assay; format: functional
[35] = Cytotoxicity against human OVCAR8 cells assessed as cell growth level at 10 uM after 48 hrs by sulforhodamine B assay; format: functional, OVCAR-8
[36] = system: NCI-H460; test: Cytotoxicity against human NCI-H460 cells assessed as cell growth level at 10 uM after 48 hrs by sulforhodamine B assay; format: functional
[37] = system: NCI-H522; test: Cytotoxicity against human NCI-H522 cells assessed as cell growth level at 10 uM after 48 hrs by sulforhodamine B assay; format: functional
[38] = system: SK-MEL-2; test: Cytotoxicity against human SK-MEL-2 cells assessed as cell growth level at 10 uM after 48 hrs by sulforhodamine B assay; format: functional
[39] = system: A549; test: Cytotoxicity against human A549/ATCC cells assessed as cell growth level at 10 uM after 48 hrs by sulforhodamine B assay; format: functional
[40] = system: A498; test: Cytotoxicity against human A498 cells assessed as cell growth level at 10 uM after 48 hrs by sulforhodamine B assay; format: functional
[41] = system: HL-60(TB); test: Cytotoxicity against human HL-60(TB) cells assessed as cell growth level at 10 uM after 48 hrs by sulforhodamine B assay; format: functional
[42] = Cytotoxicity against human UACC257 cells assessed as cell growth level at 10 uM after 48 hrs by sulforhodamine B assay; format: functional, UACC-257
[43] = system: SK-MEL-28; test: Cytotoxicity against human SK-MEL-28 cells assessed as cell growth level at 10 uM after 48 hrs by sulforhodamine B assay; format: functional
[44] = system: Malme-3M; test: Cytotoxicity against human MALME-3M cells assessed as cell growth level at 10 uM after 48 hrs by sulforhodamine B assay; format: functional
[45] = system: M14; test: Cytotoxicity against human M14 cells assessed as cell growth level at 10 uM after 48 hrs by sulforhodamine B assay; format: functional
[46] = system: SF-295; test: Cytotoxicity against human SF295 cells assessed as cell growth level at 10 uM after 48 hrs by sulforhodamine B assay; format: functional
[47] = Cytotoxicity against human HCT15 cells assessed as cell growth level at 10 uM after 48 hrs by sulforhodamine B assay; format: functional, HCT-15
[48] = Cytotoxicity against human PC3 cells assessed as inhibition of cell growth after 48 hrs by sulforhodamine B assay; format: functional, cell-based; details: PC-3, 48 h
[49] = system: SN12C; test: Cytotoxicity against human SN12C cells assessed as cell growth level at 10 uM after 48 hrs by sulforhodamine B assay; format: functional
[50] = Cytotoxicity against human UO31 cells assessed as cell growth level at 10 uM after 48 hrs by sulforhodamine B assay; format: functional, UO-31
[51] = system: CCRF-CEM; test: Cytotoxicity against human CCRF-CEM cells assessed as cell growth level at 10 uM after 48 hrs by sulforhodamine B assay; format: functional
[52] = system: SW-620; test: Cytotoxicity against human SW620 cells assessed as cell growth level at 10 uM after 48 hrs by sulforhodamine B assay; format: functional
[53] = system: NCI-H226; test: Cytotoxicity against human NCI-H226 cells assessed as cell growth level at 10 uM after 48 hrs by sulforhodamine B assay; format: functional
[54] = Cytotoxicity against human HCT116 cells assessed as cell growth level at 10 uM after 48 hrs by sulforhodamine B assay; format: functional, HCT-116
[55] = system: HOP-62; test: Cytotoxicity against human HOP62 cells assessed as cell growth level at 10 uM after 48 hrs by sulforhodamine B assay; format: functional
[56] = Cytotoxicity against human UACC62 cells assessed as cell growth level at 10 uM after 48 hrs by sulforhodamine B assay; format: functional, UACC-62
[57] = system: MDA-MB-468; test: Cytotoxicity against human MDA-MB-468 cells assessed as cell growth level at 10 uM after 48 hrs by sulforhodamine B assay; format: functional
[58] = molecular target: T1, DNA topoisomerase 1 (Homo sapiens) (UniProt P11387); test: Inhibition of human recombinant DNA topoisomerase 1 assessed as reduction in relaxation of supercoiled pHOT DNA at 25 to 50 uM incubated for 45 mins by ethidium bromide staining based gel electrophoresis
T1 sequence (whole entry): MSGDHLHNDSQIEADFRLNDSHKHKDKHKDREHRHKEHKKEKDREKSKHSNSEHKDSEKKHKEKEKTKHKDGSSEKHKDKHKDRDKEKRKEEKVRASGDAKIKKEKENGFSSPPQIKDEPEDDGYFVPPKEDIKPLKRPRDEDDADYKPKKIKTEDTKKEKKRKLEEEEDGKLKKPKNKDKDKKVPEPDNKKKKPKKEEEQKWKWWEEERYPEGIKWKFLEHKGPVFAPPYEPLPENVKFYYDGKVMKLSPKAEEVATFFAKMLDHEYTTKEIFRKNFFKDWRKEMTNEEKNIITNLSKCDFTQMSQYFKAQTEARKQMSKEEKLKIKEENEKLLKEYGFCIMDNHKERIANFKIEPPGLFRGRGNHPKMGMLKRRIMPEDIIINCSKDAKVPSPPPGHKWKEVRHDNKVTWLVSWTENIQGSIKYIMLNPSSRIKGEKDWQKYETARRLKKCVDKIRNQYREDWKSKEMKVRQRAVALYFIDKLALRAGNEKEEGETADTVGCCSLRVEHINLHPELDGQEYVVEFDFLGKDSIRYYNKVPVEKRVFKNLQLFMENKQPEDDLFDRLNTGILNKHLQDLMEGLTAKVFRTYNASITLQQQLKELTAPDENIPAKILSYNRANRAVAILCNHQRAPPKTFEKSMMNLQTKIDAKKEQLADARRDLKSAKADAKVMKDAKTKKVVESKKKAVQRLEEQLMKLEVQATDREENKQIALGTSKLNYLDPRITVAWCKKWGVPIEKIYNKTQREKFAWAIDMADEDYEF

## O=C(CCN1CCCC1)Nc1cc2c(cc1O)C(=O)c1ccccc1C2=O
[1]
  Activity: 98.08%
[2]
  Activity: 95.72%
[3]
  Activity: 105.86%
[4]
  Activity: 92.22%
[5]
  Activity: 103.62%
[6]
  Activity: 102.47%
[7]
  Activity: 67.12%
[8]
  Activity: 74.5%
[9]
  Activity: 103.64%
[10]
  Activity: 91.56%
[11]
  Activity: 112.79%
[12]
  Activity: 96.45%
[13]
  Activity: 86.61%
[14]
  Activity: 89.48%
[15]
  Activity: 107.45%
[16]
  Activity: 108.53%
[17]
  Activity: 82.72%
[18]
  Activity: 56.43%
[19]
  Activity: 99.72%
[20]
  Activity: 118.26%
[21]
  Activity: 106.65%
[22]
  Activity: 98.8%
[23]
  Activity: 97.79%
[24]
  Activity: 82.42%
[25]
  Activity: 96.56%
[26]
  Activity: 106.34%
[27]
  Activity: 108.8%
[28]
  Activity: 97.73%
[29]
  Activity: 114.86%
[30]
  Activity: 83.51%
[31]
  Activity: 100.56%
[32]
  Activity: 104.33%
[33]
  Activity: 91.17%
[34]
  Activity: 103.97%
[35]
  Activity: 100.18%
[36]
  Activity: 101.03%
[37]
  Activity: 89.35%
[38]
  Activity: 102.06%
[39]
  Activity: 98.4%
[40]
  Activity: 86.98%
[41]
  Activity: 103.96%
[42]
  Activity: 113%
[43]
  Activity: 104.99%
[44]
  Activity: 142.32%
[45]
  Activity: 96.96%
[46]
  Activity: 93.19%
[47]
  Activity: 97.11%
[48]
  IC50: > 30 µM
[49]
  Activity: 100.6%
[50]
  Activity: 79.74%
[51]
  Activity: 87.09%
[52]
  Activity: 106.36%
[53]
  Activity: 89.38%
[54]
  Activity: 98.96%
[55]
  Activity: 98.3%
[56]
  Activity: 94.37%
[57]
  Activity: 93.65%

## O=C1c2ccccc2C(=O)c2cc3oc(=S)[nH]c3cc21
[58]
  inhibition: inactive
[48]
  IC50: > 30 µM

## O=C1c2ccccc2C(=O)c2cc3oc(SCc4ccc(F)cc4F)nc3cc21
[48]
  IC50: > 30 µM

## CCN(CC)CCC(=O)Nc1cc2c(cc1O)C(=O)c1ccccc1C2=O
[48]
  IC50: 23.6 µM

## O=C1c2ccccc2C(=O)c2cc3oc(SCCCN4CCCCC4)nc3cc21
[58]
  inhibition: Active
[48]
  IC50: 12.2 µM

## O=C(CCl)Nc1cc2c(cc1O)C(=O)c1ccccc1C2=O
[48]
  IC50: 23.4 µM

## CCCCSc1nc2cc3c(cc2o1)C(=O)c1ccccc1C3=O
[48]
  IC50: > 30 µM
